Experimental data as given in patent US7271192B2, “Substituted 2-pyrrolidine-2-yl-1H-indole compounds” (Gruenenthal GmbH, priority 2001, dated 2007).

Target: T1, nNOS (Rattus norvegicus, UniProt P29476)
T1 construct: Rat cerebelli were used as the starting tissue; from tissue; host or cells: rat cerebellum (20,000 g supernatant of homogenate)
Assay: NOS assay (HTS NOS assay, radioactive arginine, filter plate)
Format: biochemical
Details: enzyme preparation from rat cerebelli
Experimental: This assay allows the determination of the percentage inhibition of NO synthase by an active compound by means of measurement of the NOS activity under the action of the active compound. In this procedure, NO synthase is mixed together with radioactively labelled arginine and the active compound under suitable conditions. After discontinuation of the NO formation reaction at a given point in time, the amount of unreacted arginine is determined directly or indirectly. Comparison of this amount with the amount of arginine which remains in a sample from the mixture of NOS and arginine without the addition of active compound and under otherwise identical conditions gives the % inhibition of NO synthase by the active compound tested. This assay can be carried out as follows:
incubation of NO synthase with labelled arginine as the substrate in a reaction vessel,
separation of the labelled arginine from the labelled citrulline possibly formed as the product of the enzymatic reaction at a point in time at which the concentration of citrulline increases,
measurement of the amount of arginine separated off in the particular case.
The separation is carried out via a filter plate membrane.
This NOS assay is particularly suitable for a “high throughput screening” (HTS) on microtitre plates (MTP).
In this HTS NOS assay, radioactive arginine is used as the substrate. The assay volume can be chosen in the range between 25 μl and 250 μl, depending on the nature of the microtitre plate (MTP). Cofactors and coenzymes are added, depending on the enzyme source used. The incubation of the batches in this microtitre plate (assay MTP) according to step (a) is carried out at room temperature and is between 5 and 60 minutes, depending on the enzyme activity (units) used. At the end of the incubation (step (a)), the plate is placed in a cell harvester equipped with an MTP which has a cation exchange membrane as the filter base (filter MTP). All the batches of the assay MTP are transferred into this filter MTP and filtered with suction over a cation exchanger filter plate, a paper filter loaded with phosphate groups. The filter MTP is then washed with buffer or water. The arginine substrate which remains is bonded to the cation exchanger with the aid of this procedure, while the radioactive citrulline formed enzymatically is washed out quantitatively. After drying of the filter MTP and addition of scintillation liquid, the arginine bonded can be counted on a scintillation counter. A non-inhibited NOS reaction is reflected in a low radioactivity. An inhibited enzyme reaction means that the radioactive arginine has not been reacted, i.e. there is a high radioactivity on the filter.
Arginine, L-[2,3,4-^3H]-monohydrochloride; order no. NET-1123, NEN • CaCl2, anhydrous; order no. 2388.1000; Merck KGaA • 1,4-dithiothreitol (DTT), order no. 708984; ROCHE • Na2EDTA-dihydrate; order no. 03680; FLUKA • HEPES, order no. H-3375; SIGMA • NADPH, tetrasodium salt; order no. 1585363; ROCHE • TRIS; ORDER no. 93349; FLUKA
Enzyme preparation buffer: 50 mM Tris-HCl with 1 mM EDTA: The pH of the buffer was adjusted to 7.4 at 4° C.
Incubation buffer (medium): 50 mM HEPES with 1 mM EDTA; 1.25 mM CaCl2 and 1 mM dithiothreitol.
The pH of the buffer was adjusted to 7.4 at 25° C.
Rat cerebelli were used as the starting tissue. The animals were narcotized and sacrificed, the brain tissue, the cerebellum, was removed, 1 ml of enzyme preparation buffer was added (4° C.) per rat cerebellum and the tissue was broken down with a Polytron homogeniser for 1 min at 6,000 rpm. Centrifugation at 4° C. for 15 min at 20,000 g and subsequent decanting of the supernatant and freezing in portions at −80° C. (precipitate discarded) then took place.
Compounds according to the invention were tested for nNOS inhibition in the NOS assay described above.

Structure (SMILES) | inhibition at 10 µM
CCN(CC)CCn1c(C2CCCN2C(=O)c2cc(OC)cc(OC)c2)c(-c2ccccc2)c2cc(Cl)ccc21 (centres unmarked) [Example 26, {2-[5-Chloro-1-(2-diethylamino-ethyl)-3-phenyl-1H-indol-2-yl]-pyrrolidin-1-yl}-(3,5-dimethoxy-phenyl)-methanone] | 51%
CCN(CC)CCn1c(C2CCCN2C(=O)C2CCC2)c(-c2ccccc2)c2cc(Cl)ccc21 (centres unmarked) [Example 15, {2-[5-Chloro-1-(2-diethylamino-ethyl)-3-phenyl-1H-indol-2-yl]-pyrrolidin-1-yl}-cyclobutyl-methanone] | 38%
CCCCCC(=O)N1CCCC1c1c(-c2ccccc2)c2cc(Cl)ccc2n1CCN(CC)CC (centres unmarked) [Example 20, 1-{2-[5-Chloro-1-(2-diethylamino-ethyl)-3-phenyl-1H-indol-2-yl]-pyrrolidin-1-yl}-hexan-1-one] | 35%
CCOc1ccc(C(=O)N2CCCC2c2c(-c3ccccc3)c3cc(Cl)ccc3n2CCN(CC)CC)cc1 (centres unmarked) [Example 28, {2-[5-Chloro-1-(2-diethylamino-ethyl)-3-phenyl-1H-indol-2-yl]-pyrrolidin-1-yl}-(4-ethoxy-phenyl)-methanone] | 41%
CCN(CC)CCn1c(C2CCCN2C(=O)c2ccco2)c(-c2ccccc2)c2cc(Cl)ccc21 (centres unmarked) [Example 9, {2-[5-Chloro-1-(2-diethylamino-ethyl)-3-phenyl-1H-indol-2-yl]-pyrrolidin-1-yl}-furan-2-yl-methanone] | 45%
Cn1c(C2CCCN2C(=O)C2CC2)c(-c2ccccc2)c2cc(Cl)ccc21 (centres unmarked) [Example 48, [2-(5-Chloro-1-methyl-3-phenyl-1H-indol-2-yl)-pyrrolidin-1-yl]-cyclopropyl-methanone] | 35%
CCN(CC)CCn1c(C2CCCN2C(=O)c2ccc(F)cc2)c(-c2ccccc2)c2cc(Cl)ccc21 (centres unmarked) [Example 13, {2-[5-Chloro-1-(2-diethylamino-ethyl)-3-phenyl-1H-indol-2-yl]-pyrrolidin-1-yl}-(4-fluoro-phenyl)-methanone] | 47%

Further lines, results first:

inhibition at 10 µM | Structure (SMILES)
54% | CC#CCn1c(C2CCCN2C(=O)COC)c(-c2ccccc2)c2cc(Cl)ccc21 (centres unmarked) [Example 73, 1-[2-(1-But-2-ynyl-5-chloro-3-phenyl-1H-indol-2-yl)-pyrrolidin-1-yl]-2-methoxy-ethanone]
34% | CCOC(=O)CCC(=O)N1CCCC1c1c(-c2ccccc2)c2cc(Cl)ccc2n1CCN(CC)CC (centres unmarked) [Example 12, 4-{2-[5-Chloro-1-(2-diethylamino-ethyl)-3-phenyl-1H-indol-2-yl]-pyrrolidin-1-yl)-4-oxo-butyric acid ethyl ester]
36% | CCN(CC)CCn1c(C2CCCN2C(=O)c2ccc(Cl)nc2)c(-c2ccccc2)c2cc(Cl)ccc21 (centres unmarked) [Example 17, {2-[5-Chloro-1-(2-diethylamino-ethyl)-3-phenyl-1H-indol-2-yl]-pyrrolidin-1-yl)-(6-chloro-pyridin-3-yl)-methanone]
41% | COCCOCC(=O)N1CCCC1c1c(-c2ccccc2)c2cc(Cl)ccc2n1C (centres unmarked) [Example 35, 1-[2-(5-Chloro-1-methyl-3-phenyl-1H-indol-2-yl)-pyrrolidin-1-yl]-2-(2-methoxy-ethoxy)-ethanone]
